Experiments:
[1] = target: T1, Full-length inactive AKT1 (Homo sapiens, UniProt P31749); assay: Inactive Akt HTRF Assay (Akt1)
Procedure: AKT1 activity was assayed using CisBio KinEASE™ HTRF Assay technology. This technology utilizes a proprietary biotinylated peptide substrate (STKS3), streptavidin labeled XL665 antibody, and STK antibody-Eu^3+-cryptate. AKT1 activation was achieved by the addition of the activating kinases PDK1 and MAPKAPK2, lipid vesicles, and ATP. The extent of STKS3 biotinylated peptide phosphorylation was determined using a phospho-STK antibody-Eu^3+-cryptate and streptavidin labeled XL665 antibody. XL665 was stimulated by Eu^3+-cryptate resulting in a TR-FRET signal proportional to the SKS3 phosphorylation level.

[2] = target: T1, Full-length inactive AKT1; assay: Inactive Akt Alpha Screen Assay; type: biochemical; details: values not marked with "*"; read-out: Akt1 IC50, (AlphaScreen)
Method in brief: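 AlphaScreen read-out (excitation 640 nm, emission 570 nm) after 90 min incubation at room temperature in the dark. Signal comes from crosstide phosphorylation by AKT1, which was activated by added PDK1, MAPKAPK2, ATP and lipid vesicles, captured via phospho-AKT substrate antibody and streptavidin beads.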

A2780 = assay: MTS Assay, cell proliferation, A2780; type: cell-based; details: Homo sapiens, read-out: Average of [CELL], IC50, MTS (72 hours; 10 Percent; FBS) A2780
Procedure: (§1) Cell proliferation analysis. Cell survival was determined by the MTS assay. Briefly, cells were plated in a 96-well plate at 2,000-10,000 cells per well, cultured for 24 hours in complete growth medium, and then treated with various drugs and drug combinations for 72 hours. MTS was added and incubated for 4 hour, followed by assessment of cell viability using the microplate reader at 570 nm. Data were normalized to untreated controls and analyzed with Microsoft Excel.

AN3CA = assay: MTS Assay, cell proliferation, AN3CA; type: cell-based; details: Homo sapiens, AN3-CA, read-out: Average of [CELL], IC50, MTS (72 hours; 10 Percent; FBS) AN3CA
Procedure: as §1

BT474 = assay: MTS Assay, cell proliferation, BT474; type: cell-based; details: Homo sapiens, BT-474, read-out: Average of [CELL], IC50, MTS (72 hours; 10 Percent; FBS) BT474
Procedure: as §1

LnCap = assay: MTS Assay, cell proliferation, LnCap; type: cell-based; details: Homo sapiens, read-out: Average of [CELL], IC50, MTS (72 hours; 10 Percent; FBS) LnCap
Procedure: as §1

T1 sequence (P31749 whole entry): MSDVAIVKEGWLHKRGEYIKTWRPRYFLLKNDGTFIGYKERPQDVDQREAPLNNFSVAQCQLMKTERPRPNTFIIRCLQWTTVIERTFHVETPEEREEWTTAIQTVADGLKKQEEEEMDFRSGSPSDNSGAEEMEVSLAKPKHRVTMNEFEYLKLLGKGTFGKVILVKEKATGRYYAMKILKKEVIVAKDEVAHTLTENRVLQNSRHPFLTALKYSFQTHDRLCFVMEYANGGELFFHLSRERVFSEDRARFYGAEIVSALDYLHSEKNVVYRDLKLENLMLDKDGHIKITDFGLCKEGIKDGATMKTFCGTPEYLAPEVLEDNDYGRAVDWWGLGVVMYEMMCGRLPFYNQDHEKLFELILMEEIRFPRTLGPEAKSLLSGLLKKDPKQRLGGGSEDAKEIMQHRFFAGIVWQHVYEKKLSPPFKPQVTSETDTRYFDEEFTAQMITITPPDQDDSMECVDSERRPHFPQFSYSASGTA

## Nc1ncccc1-c1nc2cccnc2n1-c1ccc(-n2cncn2)cc1 [Example 31]
[1]
  IC50: 22.1 µM

## CC(C(=O)NCc1ccc(-n2c(-c3cccnc3N)nc3cccnc32)cc1)c1ccccc1 (stereo not shown) [Example 51, N-{4-[2-(2-aminopyridin-3-yl)-3H-imidazo[4,5-b]pyridin-3-yl]benzyl}-2-phenylpropanamide]
[1]
  IC50: 82.8 µM

## Nc1ncccc1-c1nc2cccnc2n1-c1ccc(CC(=O)Nc2ccc(Cl)cn2)cc1 [Example 117, 2-{4-[2-(2-aminopyridin-3-yl)-3H-imidazo[4,5-b]pyridin-3-yl]phenyl}-N-(5-chloropyridin-2-yl)acetamide]
[1]
  IC50: 3.96 µM

## CCCCNC(=O)Cc1ccc(-n2c(-c3cccnc3N)nc3cccnc32)cc1 [Example 132, 2-{4-[2-(2-aminopyridin-3-yl)-3H-imidazo[4,5-b]pyridin-3-yl]phenyl}-N-butylacetamide]
[1]
  IC50: 6.84 µM

## Nc1ncccc1-c1nc2cc(-c3ccccc3Br)cnc2n1-c1ccc(CNC(=O)c2ccccc2)cc1 [Example 136, N-{4-[2-(2-aminopyridin-3-yl)-6-(2-bromophenyl)-3H-imidazo[4,5-b]pyridin-3-yl]benzyl}benzamide]
[1]
  IC50: 7.1 µM

## CC(=O)Nc1cccc(-c2ccc3nc(-c4cccnc4N)n(-c4ccc(CC(=O)Nc5ccc6nc(C)ccc6c5)cc4)c3n2)c1 [Example 290, 2-(4-(5-(3-acetamidophenyl)-2-(2-amino-pyridin-3-yl)-3H-imidazo[4,5-b]pyridin-3-yl)phenyl)-N-(2-methylquinolin-6-yl)acetamide]
[2]
  IC50: 0.012 µM
A2780
  IC50: 3.8 µM
AN3CA
  IC50: 1.1 µM
BT474
  IC50: 0.62 µM
LnCap
  IC50: 2.1 µM

## CC(=O)Nc1ccc(-c2ccc3nc(-c4cccnc4N)n(-c4ccc(CNC(=O)c5ccc(C)c(F)c5)cc4)c3n2)cc1 [Example 292, N-(4-(5-(4-acetamidophenyl)-2-(2-aminopyridin-3-yl)-3H-imidazo[4,5-b]pyridin-3-yl)benzyl)-3-fluoro-4-methylbenzamide]
[2]
  IC50: 0.096 µM
A2780
  IC50: 7.4 µM
AN3CA
  IC50: 2.3 µM
BT474
  IC50: 0.94 µM
LnCap
  IC50: 0.73 µM

## CC(=O)Nc1cccc(-c2ccc3nc(-c4cccnc4N)n(-c4ccc(CC(=O)Nc5cccc(F)c5)cc4)c3n2)c1 [Example 294, 2-(4-(5-(3-acetamidophenyl)-2-(2-aminopyridin-3-yl)-3H-imidazo[4,5-b]pyridin-3-yl)phenyl)-N-(3-fluorophenyl)acetamide]
[2]
  IC50: 0.016 µM
A2780
  IC50: 3.3 µM
AN3CA
  IC50: 1.7 µM
BT474
  IC50: 1.1 µM
LnCap
  IC50: 0.95 µM

## Cc1cnc2c(c1)nc(-c1cccnc1N)n2-c1ccc(CC(=O)Nc2ccc3ncccc3c2)cc1 [Example 295, 2-(4-(2-(2-aminopyridin-3-yl)-6-methyl-3H-imidazo[4,5-b]pyridin-3-yl)phenyl)-N-(quinolin-6-yl)acetamide]
[2]
  IC50: 0.076 µM
A2780
  IC50: 3.8 µM
AN3CA
  IC50: 3.3 µM
BT474
  IC50: 5 µM
LnCap
  IC50: 1.8 µM

## CC(=O)Nc1cccc(-c2ccc3nc(-c4cccnc4N)n(-c4ccc(CC(=O)NC(C)C)cc4)c3n2)c1 [Example 296, 2-(4-(5-(3-acetamidophenyl)-2-(2-aminopyridin-3-yl)-3H-imidazo[4,5-b]pyridin-3-yl)phenyl)-N-isopropylacetamide]
[2]
  IC50: 0.095 µM
A2780
  IC50: 33 µM
AN3CA
  IC50: 12 µM
BT474
  IC50: 6.9 µM
LnCap
  IC50: 3.9 µM

## CCCCNC(=O)Cc1ccc(-n2c(-c3cccnc3N)nc3ccc(-c4cccc(NC(C)=O)c4)nc32)cc1 [Example 297, 2-(4-(5-(3-acetamidophenyl)-2-(2-aminopyridin-3-yl)-3H-imidazo[4,5-b]pyridin-3-yl)phenyl)-N-butylacetamide]
[2]
  IC50: 0.035 µM
A2780
  IC50: 15 µM
AN3CA
  IC50: 6.5 µM
BT474
  IC50: 3.6 µM
LnCap
  IC50: 3 µM

## Nc1ncccc1-c1nc2ccc(-c3cccnc3)nc2n1-c1ccc(CNC(=O)c2cccc(F)c2)cc1 [Example 333, N-(4-(2-(2-aminopyridin-3-yl)-5-(pyridin-3-yl)-3H-imidazo[4,5-b]pyridin-3-yl)benzyl)-3-fluorobenzamide]
[2]
  IC50: 0.1 µM
A2780
  IC50: 13 µM
AN3CA
  IC50: 12 µM
BT474
  IC50: 6.1 µM
LnCap
  IC50: 5.7 µM
